{"source": "paper PMC12529164", "about": "“Design, Synthesis, Structure–Activity Relationships, and Preliminary Anticancer Properties of Menthol-Modified Coumarin Esters and 3,4-Dihydrocoumarin Derivatives” (ACS Omega, 2025)", "key": {"[1]": {"system": "tested cancer cell lines (SW480, SW620, PC3, MDA-MB-231)", "test": "MTT assay, mean over tested cancer cell lines", "type": "cell-based", "settings": "Homo sapiens, mean of the four cancer cell lines", "method": "They were added to 96-well plates with seeded normal and cancer cells (1 × 10^4 cells per well) and incubated for 72 h. MTT analysis was performed according to a previous study. […]"}, "Danio rerio larvae": {"system": "Danio rerio larvae", "test": "In vivo toxicity, maximum tolerated concentration", "settings": "zebrafish larvae, immersion from 96 hpf for 18 h (120 hpf), 5-150 μM tested", "method": "Zebrafish (Danio rerio, strain AB) was maintained at the Experimental Medicine Center, Medical University of Lublin, Poland. Embryos and larvae up to 120 h postfertilization (hpf) were kept under generally accepted environmental conditions, i.e., in incubators at 28.5 °C, with 14/10 h light/dark cycles. The embryos of the Zebrafish were harvested after the natural reproduction process.\nThree compounds showing low IC50 values determined on cancer lines in in vitro tests (2b, 4a) and compound 1a characterized by low cytotoxicity were used for in vivo tests. We also conducted research for coumarin. These compounds were dissolved in dimethyl sulfoxide (DMSO) (Sigma-Aldrich, St. Louis, MO, USA) and diluted in the zebrafish medium (pH 7.1–7.3; 5.0 mM NaCl, 0.17 mM KCl, 0.33 mM CaCl2, 0.33 mM MgSO4) to achieve a final DMSO concentration of 1% w/v. Twenty-four hpf zebrafish embryos were investigated under a light microscope, and […] fertilized embryos (n = 60) were selected and transferred into 48-well plates (5 embryos per well). Larvae were incubated in 1 mL of the zebrafish medium for up to 3 days after fertilization.\nOn the fourth day postfertilization (96 hpf), the larvae (10 individuals per group) were incubated in solutions of coumarin or its three derivatives (1a, 2b, 4a) at selected concentrations (5, 10, 25, 50, 75, 100, 150 μM), along with control solutions: negative control (zebrafish medium) and solvent control (1% DMSO in zebrafish medium). The maximum tolerated concentration (MTC) was calculated to assess the toxicity of the compounds and extracts. […] Larvae were individually inspected under a microscope for signs of acute locomotor dysfunction, including a weak reaction to light tail stimulation with a fine needle, disrupted posture, body deformities, protruding eyes, slowed or absent heartbeat, and mortality."}, "IL-6 in PC3 cells": {"system": "IL-6 in PC3 cells", "test": "Interleukin-6 ELISA", "type": "cell-based, human", "settings": "PC3, compound at IC50, 72 h", "method": "(§1) The concentration of Interleukin-6 (IL-6) was measured in cell culture supernatant using Interleukin IL-6 High Sensitivity ELISA kit (Diaclon SAS, Besancon Cedex, France). Cells (1 × 10^5 cells/well) were seeded in 12-well plates with medium for 24 h. […] After this incubation, the supernatants were collected and 100 μL of supernatant samples, control solutions and blank were added to precoated ELISA plate with the preceding plotting of the standard curve. Then 50 μL of diluted biotinylated antihuman interleukin-6 antibody was added and incubated at room temperature for 3 h. Afterward, the plate was washed three times and 100 μL streptavidin-HRP solution was added to each well. After 30 min incubation, the plate was washed again three times and 100 μL of tetramethylbenzidine (TMB) solution was added to each well. The plate was incubated for 15 min in the dark. The reaction was stopped by adding 100 μL of H2SO4 solution. The absorbance was estimated using a spectrophotometer at 450 nm (Microplate Spectrophotometer Thermo Scientific Multiskan GO)."}, "IL-6 in SW480 cells": {"system": "IL-6 in SW480 cells", "test": "Interleukin-6 ELISA", "type": "cell-based, human", "settings": "SW480, compound at IC50, 72 h", "method": "as §1"}, "IL-6 in SW620 cells": {"system": "IL-6 in SW620 cells", "test": "Interleukin-6 ELISA", "type": "cell-based, human", "settings": "SW620, compound at IC50, 72 h", "method": "as §1"}, "IL-6 in HaCaT cells": {"system": "IL-6 in HaCaT cells", "test": "Interleukin-6 ELISA", "type": "cell-based, human", "settings": "compound at IC50, 72 h", "method": "as §1"}, "HaCaT [2]": {"system": "HaCaT", "test": "MTT cytotoxicity assay, normal cells", "type": "cell-based", "settings": "HaCaT, 72 h, human immortal keratinocytes (normal cells)", "method": "(§2) The human primary (SW480) and metastatic (SW620) colon cancer, metastatic prostate cancer (PC3), breast adenocarcinoma (MDA-MB-231) and human immortal keratinocyte (HaCaT) cell lines were recruited from the American Type Culture Collection (ATCC). The cells were cultured in the recommended medium according to protocols (RPMI 1640 for PC3, MEM for SW480 and SW620, as well as DMEM for MDA-MB-231 and HaCaT cells) with addition of 10% FBS, penicillin (100 U/mL), and streptomycin (100 μg/mL) and cultured in 37 °C/5% CO2 in a humidified incubator. Then, the cells were passaged at a confluence of 80–90% by a treatment with 0.25% trypsin (Gibco Life Technologies) and used for studies.\n(§3) They were added to 96-well plates with seeded normal and cancer cells (1 × 10^4 cells per well) and incubated for 72 h. MTT analysis was performed according to a previous study."}, "SW620 [3]": {"system": "SW620", "test": "MTT cytotoxicity assay", "type": "cell-based, human", "method": "as §2, §3"}, "SW480 [4]": {"system": "SW480", "test": "MTT cytotoxicity assay", "type": "cell-based, human", "method": "as §2, §3"}, "SW620 [5]": {"system": "SW620", "test": "Annexin V-FITC/PI flow cytometry", "type": "cell-based, human", "settings": "SW620, compound at IC50, 72 h", "method": "(§4) The apoptotic and necrotic cells treated with derivatives 2b, 4a, 4b were detected using FITC Annexin V Apoptosis Detection Kit I (BD Biosciences Pharmingen). Briefly, cells (2 × 10^5 cells/well) were seeded in 6-well plates in supplemented medium. […] Then cells were harvested, washed, and labeled with Annexin V-FITC and propidium iodide (PI) according to the manufacturer’s protocol. The stained cells were analyzed by flow cytometry. The cells were identified as early apoptotic (Annexin V+/PI−) or late apoptotic/necrotic (Annexin V+/PI+)."}, "HaCaT [6]": {"system": "HaCaT", "test": "Annexin V-FITC/PI flow cytometry", "type": "cell-based, human", "settings": "compound at IC50, 72 h, mean", "method": "as §4"}, "SW480 [7]": {"system": "SW480", "test": "Annexin V-FITC/PI flow cytometry", "type": "cell-based, human", "settings": "SW480, compound at IC50, 72 h, mean", "method": "as §4"}, "PC3": {"system": "PC3", "test": "Annexin V-FITC/PI flow cytometry", "type": "cell-based, human", "settings": "PC3, compound at IC50, 72 h, mean", "method": "as §4"}, "[8]": {"settings": "SI = IC50 for normal cell line (HaCaT)/IC50 cancer cell line"}}, "note": "Values joined by “and” are separate entries in the source; they are usually repeats but may differ in a detail not shown here. Equal entries are not always repeated. Where two headings read alike, the source gives them in different places.", "data": [{"smiles": "CC(C)[C@@H]1CC[C@@H](C)C[C@H]1OC(=O)C1C(=O)Oc2ccccc2C1P(=O)(c1ccccc1)c1ccccc1", "note": "(mixture of isomers) [Compound 4a, (1R,2S,5R)-2-Isopropyl-5-methylcyclohexyl-4-(diphenylphosphoryl)-2-oxochromane-3-carboxylate]", "values": [{"measurement": "IC50", "setting": "[1]; Table S7, >100 entered as 100, read-out: mean anticancer IC50", "result": 11.6, "unit": "µM"}, {"measurement": "IC50", "setting": "[1]; read-out: average IC50 against tested cancer cell lines", "result": 11.6, "unit": "µM"}, {"measurement": "maximum tolerated concentration (MTC)", "setting": "Danio rerio larvae", "result": 75, "unit": "µM"}, {"measurement": "IL-6 concentration", "setting": "IL-6 in PC3 cells; ELISA", "result": "0.6 ± 0.09", "unit": "pg/mL"}, {"measurement": "reduction of IL-6 level", "setting": "IL-6 in PC3 cells; vs control", "result": 87.2, "unit": "%"}, {"measurement": "IL-6 concentration", "setting": "IL-6 in SW480 cells; ELISA", "result": "0.9 ± 0.33", "unit": "pg/mL"}, {"measurement": "reduction of IL-6 level", "setting": "IL-6 in SW480 cells; vs control", "result": 77.6, "unit": "%"}, {"measurement": "IL-6 concentration", "setting": "IL-6 in SW620 cells; ELISA", "result": "0.9 ± 0.27", "unit": "pg/mL"}, {"measurement": "reduction of IL-6 level", "setting": "IL-6 in SW620 cells; vs control", "result": 69.1, "unit": "%"}, {"measurement": "IL-6 concentration", "setting": "IL-6 in HaCaT cells; ELISA", "result": "7.5 ± 1.13", "unit": "pg/mL"}, {"measurement": "reduction of IL-6 concentration", "setting": "IL-6 in HaCaT cells; vs control", "result": 26.5, "unit": "%"}, {"measurement": "IC50", "setting": "HaCaT [2]", "result": "15.1 ± 2.76", "unit": "µM"}, {"measurement": "SI SW620", "setting": "SW620 [3]; [8]", "result": 2.21}, {"measurement": "IC50", "setting": "SW620 [3]; SW-620, MTT, 72 h, human metastatic colon cancer", "result": "6.8 ± 0.55", "unit": "µM"}, {"measurement": "SI SW480", "setting": "SW480 [4]; [8]", "result": 3.28}, {"measurement": "IC50", "setting": "SW480 [4]; SW480, MTT, 72 h, human primary colon cancer", "result": "4.6 ± 1.01", "unit": "µM"}, {"measurement": "Early apoptosis [%]", "setting": "SW620 [5]; mean", "result": 11.75, "unit": "%"}, {"measurement": "Late apoptosis [%]", "setting": "SW620 [5]; mean", "result": 8.80, "unit": "%"}, {"measurement": "Necrosis [%]", "setting": "SW620 [5]; mean", "result": 1.45, "unit": "%"}, {"measurement": "both late apoptosis and necrosis", "setting": "SW620 [5]; sum", "result": 10.25, "unit": "%"}, {"measurement": "Early apoptosis [%]", "setting": "HaCaT [6]", "result": 8.90, "unit": "%"}, {"measurement": "Late apoptosis [%]", "setting": "HaCaT [6]", "result": 3.40, "unit": "%"}, {"measurement": "Necrosis [%]", "setting": "HaCaT [6]", "result": 0.08, "unit": "%"}, {"measurement": "Early apoptosis [%]", "setting": "SW480 [7]", "result": 1.95, "unit": "%"}, {"measurement": "Late apoptosis [%]", "setting": "SW480 [7]", "result": 48.95, "unit": "%"}, {"measurement": "Necrosis [%]", "setting": "SW480 [7]", "result": 1.80, "unit": "%"}, {"measurement": "Early apoptosis [%]", "setting": "PC3", "result": 48.3, "unit": "%"}, {"measurement": "Late apoptosis [%]", "setting": "PC3", "result": "44.75% and 44.8%"}, {"measurement": "Necrosis [%]", "setting": "PC3", "result": 0.65, "unit": "%"}]}]}
